Biological target: T1, FvUGT1 (Fragaria vesca, UniProt A0A1S5NSV4)
T1 construct: gene UGT1; full-length ORF in pET-32 (KpnI/BamHI), N- and C-terminal His-tags kept, fusion 72 kD, E. coli BL21(DE3) pLysS, Ni-NTA; oligomer state unknown
T1 sequence (A0A1S5NSV4 1-465): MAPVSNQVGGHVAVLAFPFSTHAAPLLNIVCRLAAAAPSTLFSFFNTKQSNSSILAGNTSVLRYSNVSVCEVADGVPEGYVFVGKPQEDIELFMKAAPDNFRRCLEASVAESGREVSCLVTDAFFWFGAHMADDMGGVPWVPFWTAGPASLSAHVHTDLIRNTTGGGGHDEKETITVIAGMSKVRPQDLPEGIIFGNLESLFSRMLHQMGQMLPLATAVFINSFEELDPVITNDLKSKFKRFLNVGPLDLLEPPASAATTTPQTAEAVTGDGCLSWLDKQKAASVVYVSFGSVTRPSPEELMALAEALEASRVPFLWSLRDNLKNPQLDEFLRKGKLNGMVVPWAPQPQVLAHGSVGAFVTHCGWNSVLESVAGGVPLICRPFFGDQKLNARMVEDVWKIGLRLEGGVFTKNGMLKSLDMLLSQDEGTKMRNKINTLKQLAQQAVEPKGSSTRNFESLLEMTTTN
Assay: phosphatase-coupled malachite green glycosyltransferase assay; partial uncompetitive substrate inhibition fit (modified Hill, x = […])
Format: biochemical
Settings: second site, no calmodulin, 5 mM UDP-Glc, 0–1,400 μM pelargonidin chloride, 10 mM CaCl2, pH 7.5, 37 °C

K i: 331.5 ± 13.3 µM
SMILES: Oc1ccc(-c2[o+]c3cc(O)cc(O)c3cc2O)cc1 [pelargonidin]

— paper PMC5017016, “Calcium/calmodulin alleviates substrate inhibition in a strawberry UDP-glucosyltransferase involved in fruit anthocyanin biosynthesis” (BMC Plant Biology, 2016)
